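Dose response: 5 concentrations. Exposure: 48 h. Format: 96-well plates. Endpoint: linear interpolation; highest concentration if not reached. GI50 marks 50% less growth.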 Activity calls are given as the source filed them. Rule as the data show it: active = GI50 up to about 1.1 µM and inactive = higher.
What was measured:
Test in all cases: NCI anticancer screen, dose series, 48 h
SNB-19 = system: SNB-19
SF-268 = system: SF-268
SK-MEL-5 = system: SK-MEL-5
NCI-H522 = system: NCI-H522
ACHN = system: ACHN
SK-OV-3 = system: SK-OV-3
A549 = system: A549
Malme-3M = system: Malme-3M
NCI-H23 = system: NCI-H23
NCI-H460 = system: NCI-H460
SK-MEL-28 = system: SK-MEL-28
SK-MEL-2 = system: SK-MEL-2
UACC-257 = system: UACC-257
IGROV-1 = system: IGROV-1
HL-60 = system: HL-60
UACC-62 = system: UACC-62
HCC 2998 = system: HCC 2998

Row | Compound | GI50 (SNB-19) | GI50 (SF-268) | GI50 (SK-MEL-5) | GI50 (NCI-H522) | GI50 (ACHN) | GI50 (SK-OV-3) | GI50 (A549) | GI50 (Malme-3M) | GI50 (NCI-H23) | GI50 (NCI-H460) | GI50 (SK-MEL-28) | GI50 (SK-MEL-2) | GI50 (UACC-257) | GI50 (IGROV-1) | GI50 (HL-60) | GI50 (UACC-62) | GI50 (HCC 2998)
1 | OCCN1CCN(CCO)Cc2ccccc2OCCOc2ccccc2C1 | > 100 µM (inactive) | > 100 µM (inactive) | > 100 µM (inactive) | > 100 µM (inactive) | > 100 µM (inactive) | > 100 µM (inactive) | > 100 µM (inactive) | > 100 µM (inactive) | > 100 µM (inactive) | > 100 µM (inactive) | > 100 µM (inactive) | > 100 µM (inactive) | > 100 µM (inactive) | > 100 µM (inactive) |  |  | 
2 | COc1ccc(C(c2ccc(C(C)C)cc(=O)c2O)c2ccc3cccnc3c2O)cc1 (stereo unspecified) |  | 0.399 µM (active) | 0.507 µM (active) | 1.8 µM (inactive) | 0.274 µM (active) | 2.3 µM (inactive) | 0.328 µM (active) | 0.398 µM (active) | 0.349 µM (active) | 0.297 µM (active) |  | 2.02 µM (inactive) |  | 0.425 µM (active) | 0.863 µM (active) | 0.735 µM (active) | 
3 | C=CC1(C)CCC2=C(CCC3C(C)(C(=O)OC)CCCC23C)C1=O (stereo unspecified) | 38.4 µM (inactive) | 18.7 µM (inactive) | 16.7 µM (inactive) | 15.1 µM (inactive) | 17.7 µM (inactive) | 18.9 µM (inactive) |  | 17.9 µM (inactive) | 19.5 µM (inactive) | 18.3 µM (inactive) |  | 17.9 µM (inactive) | 22.8 µM (inactive) | 18.9 µM (inactive) | 28.7 µM (inactive) | 18.3 µM (inactive) | 
4 | N#CC1C(=O)C(=O)N(c2ccccc2)C1=O (stereo unspecified) | > 100 µM (inactive) | > 100 µM (inactive) | > 100 µM (inactive) | > 100 µM (inactive) | > 100 µM (inactive) | > 100 µM (inactive) |  | > 100 µM (inactive) | > 100 µM (inactive) | > 100 µM (inactive) | > 100 µM (inactive) | > 100 µM (inactive) | > 100 µM (inactive) | > 100 µM (inactive) |  | > 100 µM (inactive) | > 100 µM (inactive)
5 | COC(=O)C1=C(C)N2CCOC2CC1c1ccccc1 (stereo unspecified) | > 100 µM (inactive) | > 100 µM (inactive) | > 100 µM (inactive) |  | > 100 µM (inactive) |  | > 100 µM (inactive) |  | 84.1 µM (inactive) | > 100 µM (inactive) | 99.1 µM (inactive) | > 100 µM (inactive) | > 100 µM (inactive) | > 100 µM (inactive) | 53.5 µM (inactive) | > 100 µM (inactive) | > 100 µM (inactive)
6 | CC12CC3CC(C1)CC(N=[N+]=[N-])(C3)C2 | > 100 µM (inactive) |  | > 100 µM (inactive) | > 100 µM (inactive) | > 100 µM (inactive) | > 100 µM (inactive) | > 100 µM (inactive) | > 100 µM (inactive) | > 100 µM (inactive) | > 100 µM (inactive) | > 100 µM (inactive) | > 100 µM (inactive) | > 100 µM (inactive) | > 100 µM (inactive) |  | > 100 µM (inactive) | > 100 µM (inactive)
7 | O=C(CCc1ccccc1)CC1OC(=O)C(Cl)=C1Cl (stereo unspecified) | 20.9 µM (inactive) | 27.5 µM (inactive) | 20.8 µM (inactive) | 14.5 µM (inactive) | 20.5 µM (inactive) | 45.6 µM (inactive) | 43.4 µM (inactive) | 18.2 µM (inactive) | 19.1 µM (inactive) | 33.5 µM (inactive) | 16.9 µM (inactive) | 19.1 µM (inactive) | 21.3 µM (inactive) | 22.2 µM (inactive) |  | 17 µM (inactive) | 18.6 µM (inactive)
